The source of these data is patent publication US9801901B2, “Alginate oligomers for use in overcoming multidrug resistance in bacteria” (priority 2009, dated 2017).

≈ marks a conversion by molar mass, not a printed value. Read-outs that look alike come from different tables or passages of the source. Marks after values point to notes of the source that are not given here.

The test system of experiment [1] is Acinetobacter baumannii (Egypt, V9). The experiment can be described thus: MIC-assay, Mueller-Hinton broth with G-block alginate, 384-well, OD600.
Experiment [2] has as its system V23 1322 Burkholderia cepacia. As to the kind of experiment: MIC assay, CAMHB with alginate oligomer, no visible growth. It is filed as cell-based.
Experiment [3] has as its system V10 (Egypt) Acinetobacter lwoffii. The experiment is described as above. Particulars: Table 5, V10 MDR Acin. lwoff. Type of experiment: cell-based.
In experiment [4] the test system is Acinetobacter lwoffii (Egypt, V10). The experiment can be described thus: MIC-assay, Mueller-Hinton broth with G-block alginate, 384-well, OD600.
The subject of another experiment is V11 5702 (Wales) E. coli. The experiment can be described thus: MIC assay, CAMHB with alginate oligomer, no visible growth. It is filed as cell-based. The following applies: Table 5, V11 MDR E.coli.
Experiment [5] deals with PA01 Pseudomonas aeruginosa ATCC 15692. The experiment can be described thus: MIC assay, two-fold antibiotic dilutions in CAMHB with alginate oligomer, no visible growth. It is filed as cell-based. The following applies: Pseudomonas aeruginosa, ATCC15692, Table 1, PA01, read-out: MIC.
Experiment [6] deals with Acinetobacter lwoffii (6056, V22). As to the kind of experiment: MIC-assay, Mueller-Hinton broth with G-block alginate, 384-well, OD600.
Experiment [7] relates to Pseudomonas aeruginosa (MDR 301, PSA, V2). The experiment is described as above.
[8] abbreviates: Table 9, G-block (OligoCF-5/20) 0%.
Setting [9] is: Table 9, G-block (OligoCF-5/20) 2%.
The mark [10] stands for this setting: Table 9, G-block (OligoCF-5/20) 6%.
[11] abbreviates: Table 9, G-block (OligoCF-5/20) 10%.
[12] abbreviates: Pseudomonas aeruginosa, Table 8, V2, G-block (OligoCF-5/20) 0%.
Setting [13] is: Pseudomonas aeruginosa, Table 8, V2, G-block (OligoCF-5/20) 2%.
The mark [14] stands for this setting: Pseudomonas aeruginosa, Table 8, V2, G-block (OligoCF-5/20) 6%.
[15] abbreviates: Pseudomonas aeruginosa, Table 8, V2, G-block (OligoCF-5/20) 10%.

Consider `CN(C)[C@@H]1C(O)=C(C(N)=O)C(=O)[C@@]2(O)C(O)=C3C(=O)c4c(O)cccc4[C@@](C)(O)[C@H]3[C@H](O)[C@@H]12` [Oxytetracycline], for which the MIC in experiment [1] (setting [8]) was 1 µg/mL (≈ 2.17 µM); in experiment [1] (setting [9]), 0.5 µg/mL (≈ 1.09 µM); in experiment [1] (setting [10]) it was 1 µg/mL (≈ 2.17 µM); in experiment [1] (setting [11]), 0.5 µg/mL (≈ 1.09 µM); in experiment [2] (Burkholderia cepacia, Table 5, V23 MDR Burk cep, OligoCF-5/20 0G, read-out: MIC), 256 µg/mL (≈ 556 µM); in experiment [2] (Burkholderia cepacia, Table 6, V23, Experiment 1 (18-03-10), OligoCF-5/20 0G, read-out: MIC), greater than 256 µg/mL. For the same molecule, the MIC was greater than 256 µg/mL in experiment [2] (Burkholderia cepacia, Table 6, V23, Experiment 2 (18-03-10), OligoCF-5/20 0G, read-out: MIC); greater than 256 µg/mL in experiment [2] (Burkholderia cepacia, Table 6, V23, Experiment 3 (19-03-10), OligoCF-5/20 0G, read-out: MIC); 128^† μg/ml in experiment [2] (Table 5, V23 MDR Burk cep, OligoCF-5/20 +2% G); 128^† μg/ml in experiment [2] (Table 5, V23 MDR Burk cep, OligoCF-5/20 +6% G); 32^† μg/ml in experiment [2] (Table 5, V23 MDR Burk cep, OligoCF-5/20 +10% G); 256^† μg/ml in experiment [2] (Table 6, V23, Experiment 1 (18-03-10), OligoCF-5/20 +2% G). Further, the MIC in experiment [2] (Table 6, V23, Experiment 1 (18-03-10), OligoCF-5/20 +6% G) is 256^† μg/ml; in experiment [2] (Table 6, V23, Experiment 1 (18-03-10), OligoCF-5/20 +10% G), 128^† μg/ml; in experiment [2] (Table 6, V23, Experiment 2 (18-03-10), OligoCF-5/20 +2% G), greater than 256 µg/mL; in experiment [2] (Table 6, V23, Experiment 2 (18-03-10), OligoCF-5/20 +6% G) it was 256^† μg/ml; in experiment [2] (Table 6, V23, Experiment 2 (18-03-10), OligoCF-5/20 +10% G), 128^† μg/ml; in experiment [2] (Table 6, V23, Experiment 3 (19-03-10), OligoCF-5/20 +2% G), 256^† μg/ml. Moreover, the MIC was 256^† μg/ml in experiment [2] (Table 6, V23, Experiment 3 (19-03-10), OligoCF-5/20 +6% G); 256^† μg/ml in experiment [2] (Table 6, V23, Experiment 3 (19-03-10), OligoCF-5/20 +10% G); 0.5 µg/mL (≈ 1.09 µM) in experiment [3] (Acinetobacter lwoffii, OligoCF-5/20 0G, read-out: MIC); 0.5 µg/mL (≈ 1.09 µM) in experiment [3] (OligoCF-5/20 +2% G); 0.5 µg/mL (≈ 1.09 µM) in experiment [3] (OligoCF-5/20 +6% G); 0.25^† μg/ml in experiment [3] (OligoCF-5/20 +10% G). The MIC in experiment [4] (setting [8]) is 0.5 µg/mL (≈ 1.09 µM); in experiment [4] (setting [9]), 0.5 µg/mL (≈ 1.09 µM); in experiment [4] (setting [10]), 0.5 µg/mL (≈ 1.09 µM); in experiment [4] (setting [11]), 0.5 µg/mL (≈ 1.09 µM); in the experiment with V11 5702 (Wales) E. coli (Escherichia coli, OligoCF-5/20 0G, read-out: MIC), 0.5 µg/mL (≈ 1.09 µM); against V11 5702 (Wales) E. coli (OligoCF-5/20 +2% G) it was 1^‡ μg/ml. Further, the MIC amounted to 0.5 µg/mL (≈ 1.09 µM) against V11 5702 (Wales) E. coli (OligoCF-5/20 +6% G); 0.5 µg/mL (≈ 1.09 µM) with V11 5702 (Wales) E. coli (OligoCF-5/20 +10% G); 8 µg/mL (≈ 17.4 µM) in experiment [5] (OligoCF-5/20 0G); 4 µg/mL (≈ 8.69 µM) in experiment [5] (OligoCF-5/20 +2% G); 4 µg/mL (≈ 8.69 µM) in experiment [5] (OligoCF-5/20 +6% G); 4 µg/mL (≈ 8.69 µM) in experiment [5] (OligoCF-5/20 +10% G). The MIC is less than 2 µg/mL in experiment [6] (setting [8]); less than 2 µg/mL in experiment [6] (setting [9]); less than 2 µg/mL in experiment [6] (setting [10]); less than 2 µg/mL in experiment [6] (setting [11]); 16 µg/mL (≈ 34.7 µM) in experiment [7] (setting [12]); 16 µg/mL (≈ 34.7 µM) in experiment [7] (setting [13]). Also, the MIC in experiment [7] (setting [14]) and in experiment [7] (setting [15]) was 8 µg/mL (≈ 17.4 µM) in each case.

As for `CC[C@H]1OC(=O)[C@H](C)[C@@H](O[C@H]2C[C@@](C)(OC)[C@@H](O)[C@H](C)O2)[C@H](C)[C@@H](O[C@@H]2O[C@H](C)C[C@H](N(C)C)[C@H]2O)[C@](C)(O)C[C@@H](C)[C@@H]2N[C@@H](COCCOC)O[C@H]([C@H]2C)[C@]1(C)O` [Dirithromycin], the MIC is 4 µg/mL (≈ 4.79 µM) in experiment [1] (setting [8]); less than 1 µg/mL in experiment [1] (setting [9]); less than 1 µg/mL in experiment [1] (setting [10]); less than 1 µg/mL in experiment [1] (setting [11]); less than 1 µg/mL in experiment [4] (setting [8]); less than 1 µg/mL in experiment [4] (setting [9]). Besides, the MIC in experiment [4] (setting [10]) was less than 1 µg/mL; in experiment [4] (setting [11]), less than 1 µg/mL; in experiment [6] (setting [8]), less than 2 µg/mL; in experiment [6] (setting [9]), less than 2 µg/mL; in experiment [6] (setting [10]), less than 2 µg/mL; in experiment [6] (setting [11]) it was less than 2 µg/mL. In addition, the MIC in experiment [7] (setting [12]) is greater than 512 µg/mL; in experiment [7] (setting [13]) it was greater than 512 µg/mL; in experiment [7] (setting [14]) it was 512 µg/mL (≈ 613 µM); in experiment [7] (setting [15]), 512 µg/mL (≈ 613 µM).

`CC[C@H]1OC(=O)[C@H](C)[C@@H](O[C@H]2C[C@@](C)(OC)[C@@H](O)[C@H](C)O2)[C@H](C)[C@@H](O[C@@H]2O[C@H](C)C[C@H](N(C)C)[C@H]2O)[C@](C)(O)C[C@@H](C)/C(=N\OCOCCOC)[C@H](C)[C@@H](O)[C@]1(C)O` [Roxithromycin]: the MIC was 8 µg/mL (≈ 9.56 µM) in experiment [1] (setting [8]); 4 µg/mL (≈ 4.78 µM) in experiment [1] (setting [9]); 4 µg/mL (≈ 4.78 µM) in experiment [1] (setting [10]); 2 µg/mL (≈ 2.39 µM) in experiment [1] (setting [11]); 4 µg/mL (≈ 4.78 µM) in experiment [4] (setting [8]); less than 1 µg/mL in experiment [4] (setting [9]). For the same molecule, the MIC is less than 1 µg/mL in experiment [4] (setting [10]); less than 1 µg/mL in experiment [4] (setting [11]); 4 µg/mL (≈ 4.78 µM) in experiment [6] (setting [8]); less than 2 µg/mL in experiment [6] (setting [9]); less than 2 µg/mL in experiment [6] (setting [10]); less than 2 µg/mL in experiment [6] (setting [11]). Moreover, the MIC in experiment [7] (setting [12]), in experiment [7] (setting [13]), in experiment [7] (setting [14]) and in experiment [7] (setting [15]) was greater than 512 µg/mL throughout.

As to `C[C@@H](O)[C@H]1C(=O)N2C(C(=O)O)=C(SCCN=CN)C[C@H]12` [Imipenem], the MIC in experiment [1] (setting [8]) is 2 µg/mL (≈ 6.68 µM); in experiment [1] (setting [9]), less than 2 µg/mL; in experiment [1] (setting [10]) it was 2 µg/mL (≈ 6.68 µM); in experiment [1] (setting [11]) it was less than 2 µg/mL; in experiment [4] (setting [8]), less than 2 µg/mL; in experiment [4] (setting [9]), less than 2 µg/mL. Also, the MIC was less than 2 µg/mL in experiment [4] (setting [10]); less than 2 µg/mL in experiment [4] (setting [11]); 2 µg/mL (≈ 6.68 µM) in experiment [6] (setting [8]); 2 µg/mL (≈ 6.68 µM) in experiment [6] (setting [9]); 2 µg/mL (≈ 6.68 µM) in experiment [6] (setting [10]); less than 2 µg/mL in experiment [6] (setting [11]). The MIC in experiment [7] (Pseudomonas aeruginosa) was 128 µg/mL (≈ 428 µM); in experiment [7] (setting [12]), 256 µg/mL (≈ 855 µM); in experiment [7] (setting [13]), 256 µg/mL (≈ 855 µM); in experiment [7] (Table 8, V2, G-block (OligoCF-5/20) 10%), 128 µg/mL (≈ 428 µM).
